What was measured:
Assay type in all cases: cell-based
[1] = test system: Escherichia coli nfsB (NfsB) or human cytochrome P450 reductase (CYPOR); experiment: Multiplexed reporter detection with compounds 11 and 13 in MDA-231 WT, NfsB and CYPOR cells (fluorescence microscopy); conditions: fluorescent microscope images, MDA-231 WT/NfsB/CYPOR
Description: Compounds 11 and 13 (as representative nitro-substituted aromatic compounds of the present invention) were utilized to exemplify the ability to detect individual cell populations. […] When the data were collated it was evident that the fluorescent output of each cell population could be identified with minimal interference from the other reductases-generated fluorescent molecules. […] To establish the single cell specificity of compounds 11 and 13 for detection of activities in a mixed (co-cultured) cell population, cells were examined by fluorescent microscopy following concurrent exposure to compounds 11 and 13. MDA-231 wild-type cells or cells expressing Escherichia coli nfsB and human cytochrome P450 reductase were mixed 1:1:1, seeded onto glass coverslips (15,000 cells/well in 0.1 mL αMEM+10% FCS+P/S) and allowed to attach overnight. Compound 11 and 13 were diluted into αMEM (from DMSO stock solutions) and 0.1 mL was added to achieve a final concentration of 10 μM and 100 μM respectively. Samples were incubated at 37° C. for 45 minutes, washed three times in PBS and images were acquired on a Nikon TE-2000 inverted fluorescence microscope. […] This illustrates that multiple independent outputs can be recorded from a single sample providing appropriate excitation and emission wavelengths are utilized. […]

[2] = target: T1, human cytochrome P450 reductase (CYPOR) (Homo sapiens, UniProt P16435); experiment: Multiplexed reporter detection with compounds 4 and 16 in MDA-231 cells expressing CYPOR
T1 construct: expressed in transfected cells; host or cells: MDA231 (MDA-231) human breast cancer cell line, clonal derivative MDA231 P450R
T1 sequence (P16435 1-677): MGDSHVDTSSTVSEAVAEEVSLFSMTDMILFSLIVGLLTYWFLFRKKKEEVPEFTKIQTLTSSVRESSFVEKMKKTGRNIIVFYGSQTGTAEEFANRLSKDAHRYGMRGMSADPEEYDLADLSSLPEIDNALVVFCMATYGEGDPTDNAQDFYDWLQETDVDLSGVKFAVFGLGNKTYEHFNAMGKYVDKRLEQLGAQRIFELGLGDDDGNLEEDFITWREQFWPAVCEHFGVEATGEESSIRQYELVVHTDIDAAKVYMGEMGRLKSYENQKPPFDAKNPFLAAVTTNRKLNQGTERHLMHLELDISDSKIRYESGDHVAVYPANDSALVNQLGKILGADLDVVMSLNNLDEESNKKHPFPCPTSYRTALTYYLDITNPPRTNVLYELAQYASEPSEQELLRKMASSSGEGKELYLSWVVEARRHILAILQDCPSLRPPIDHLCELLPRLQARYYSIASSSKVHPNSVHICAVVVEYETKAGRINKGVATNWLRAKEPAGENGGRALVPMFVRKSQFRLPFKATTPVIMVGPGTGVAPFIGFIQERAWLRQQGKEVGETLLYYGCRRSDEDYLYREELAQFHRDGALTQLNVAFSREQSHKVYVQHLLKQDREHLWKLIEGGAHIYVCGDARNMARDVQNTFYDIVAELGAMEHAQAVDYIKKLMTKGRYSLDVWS
Experimental: (§1) Compounds 4 and 16 (as representative nitro-substituted aromatic compounds of the present invention) were utilized to exemplify the ability to detect individual cell populations. […] 30,000 cells were seeded into a plastic 96-well plate in a volume of 0.1 mL. After 2 h attachment samples were incubated with either 200 μM 16 or 100 μM 4 by dilution of DMSO stock solutions into culture medium and addition of 0.1 mL directly into wells. Plates were incubated for 4 h before being read on a fluorescent platereader at Ex/Em 355/460 and 485/535. Values represent the fluorescence in the presence of cells—blank (fluorescence in the absence of cells). When the data were collated it was evident that the fluorescent output of each cell population could be identified with minimal interference from the other reductases-generated fluorescent molecules. […] To establish the single cell specificity of compounds 4 and 16 for detection of activities in a mixed (co-cultured) cell population, cells were examined by fluorescent microscopy following concurrent exposure to compounds 4 and 16. […] Samples were incubated at 37° C. for 45 minutes, washed three times in PBS and images were acquired on a Nikon TE-2000 inverted fluorescence microscope. […]

[3] = target: T2, E. coli nitroreductase (nfsB) (Escherichia coli, UniProt P38489); experiment: Entrapment of fluorescent products within nitroreductase expressing HCT116 cells; conditions: washed; for cellular retention of fluorescence in nitroreductase expressing but not parental HCT116 cells: 10 μM for 1.5 hr, 6 hours post-exposure
T2 construct: expressed in transfected cells; host or cells: MDA231 (MDA-231) human breast cancer cell line, clonal derivative MDA231 NTR
T2 sequence (P38489 whole entry): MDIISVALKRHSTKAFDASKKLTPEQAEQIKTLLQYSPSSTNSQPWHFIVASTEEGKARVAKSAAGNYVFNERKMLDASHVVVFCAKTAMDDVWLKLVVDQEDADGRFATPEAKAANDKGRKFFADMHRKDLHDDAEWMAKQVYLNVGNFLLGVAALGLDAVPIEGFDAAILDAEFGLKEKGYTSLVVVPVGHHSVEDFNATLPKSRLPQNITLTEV
Experimental: The human colorectal cancer cell line (HCT116^WT) and a clonal derivative (HCT116^NTR) engineered to express the reporter gene E. coli nitroreductase (nfsB) under the control of a constitutive promoter were seeded onto glass coverslips at an equal density (50:50). Cells were equilibrated to 37° C., 5% CO2, and compound 1 and 13 was added to a final concentration of 100 μM for 1 hr. Cells were washed free of compound after 1 hour and fluorescence was monitored as a function of time (FIG. 8).
In further screening (FIG. 9), the human colorectal cancer cell line (HCT116^WT) and a clonal derivative (HCT116^NTR) engineered to express the reporter gene E. coli nitroreductase (nfsB) under the control of a constitutive promoter were seeded separately into a 96-well glass plate. Cells were equilibrated to 37° C., 5% CO2, and compounds were added to a final concentration of 10 μM for 1.5 hr. Cells were washed free of compound and fluorescence was monitored 6 hours post-exposure. […] The image has been rendered monochromatic for the purposes of publication quality.

[4] = target: T3, Escherichia coli nfsB (NfsB) (Escherichia coli, UniProt P38489); experiment: Multiplexed reporter detection with compounds 4 and 16 in MDA-231 cells expressing nfsB
T3 construct: expressed in transfected cells; host or cells: MDA231 (MDA-231) human breast cancer cell line, clonal derivative MDA231 NTR
T3 sequence (P38489 whole entry): as above
Experimental: as §1

## CN(C)CCCCN1C(=O)c2cccc3cc([N+](=O)[O-])cc(c23)C1=O [Compound 11, 2-[4-(Dimethylamino)butyl]-5-nitro-1H-benzo[de]isoquinoline-1,3(2H)-dione]
[1]
  fluorescent output at Ex/Em 485/535 detecting nfsB and CYPOR enzyme activities: gave fluorescent output

## CN(C)CCCNc1ncnc2cccc([N+](=O)[O-])c12 [Compound 16, N^1,N^1-dimethyl-N^3-(5-nitro-4-quinazolinyl)-1,3-propanediamine]
[2]; 200 μM, 4 h, platereader, MDA-231 WT/NfsB/CYPOR
  fluorescent output at Ex/Em 355/460 detecting human CYPOR activity: gave fluorescent output
[2]; nfsB and CYPOR cells mixed 1:1, 300 μM, 45 minutes, microscopy
  fluorescent emission colour on co-registration image (DAPI filter set): blue

## CN(C)CCCOc1ccnc2cc([N+](=O)[O-])ccc12 [Compound 14, N,N-dimethyl-3-[(7-nitro-4-quinolinyl)oxy]-1-propanamine]
[3]
  cellular retention of fluorescence in nitroreductase expressing but not parental HCT116 cells: possessing cellular retention properties
[4]; nfsB and CYPOR cells mixed 1:1, 10 μM, 45 minutes, microscopy
  fluorescent emission colour on co-registration image (FITC filter set): green

## COC(=O)Cn1ccc(=O)c2cc([N+](=O)[O-])ccc21 [Compound 13, Methyl (6-nitro-4-oxo-1(4H)-quinolinyl)acetate]
[3]
  cellular retention of fluorescence in nitroreductase expressing but not parental HCT116 cells: possessing cellular retention properties
[3]; HCT116 WT:HCT116 NTR 50:50 co-culture, 100 μM for 1 hr, by 4 hours
  retention of fluorescence in cells after wash: still retained
[1]
  fluorescent output at Ex/Em 355/460 detecting nfsB and CYPOR enzyme activities: gave fluorescent output

## CN(C)CCNC(=O)c1cc([N+](=O)[O-])cc2c(=O)c3ccccc3[nH]c12 [Compound 4, N-[2-(Dimethylamino)ethyl]-2-nitro-9-oxo-9,10-dihydro-4-acridinecarboxamide]
[3]
  cellular retention of fluorescence in nitroreductase expressing but not parental HCT116 cells: possessing cellular retention properties
[4]; 100 μM, 4 h, platereader, MDA-231 WT/NfsB/CYPOR
  fluorescent output at Ex/Em 485/535 detecting Escherichia coli nfsB activity: gave fluorescent output
